Source: patent US7964598B2 (The J. David Gladstone Institutes, priority 1995, dated 2011)

Key:
[1] = molecular target: T1, YFP-apoE4-CFP (Homo sapiens, UniProt P02649, C130R); test: Cell-based FRET assay, YFP-apoE4-CFP; settings: 5-20 μM
T1 construct: vector signal peptide (pFLAG-CMV3) (N); FLAG (N); expressed in transfected cells
Text: Xu et al. (2004) J. Biol. Chem. 279:25511-25516. FRET—the non-radioactive transfer of photon energy from an excited fluorophore (donor) to another fluorophore (acceptor)—occurs only when the donor and acceptor are in close proximity (<100 Å). Thus, this approach can be used to measure nanometer scale distances.
Xu et al. (2004) J. Biol. Chem. 279:25511-25516. The constructs are depicted schematically in FIG. 29.
Since the emission spectrum of CFP (460-520 nm) overlaps with the excitation spectrum of YFP (480-520 nm), FLEXstation (Molecular Devices) can be used to measure FRET in living cells expressing YFP-apoE3-CFP or YFP-apoE4-CFP in a high throughput manner. […] Thus, the ratio of FRET to CFP emission in cells expressing YFP-apoE4-CFP is much higher than that in those expressing YFP-apoE3-CFP (FIG. 31). […] Since the FLEXstation can read FRET in both cells and the culture media treated without or with various small molecules, this assay allows one to know whether a small molecule affects apoE4 domain interaction only in the medium (“medium FRET”) or also inside the cell (“intracellular FRET”). In addition, after measurement of the intracellular FRET, the cells can be incubated further with MTT to determine the cytotoxicity of the compound. Thus, the cell-based FRET assay can simultaneously provide three sets of data-intracellular FRET, medium FRET, and cytotoxicity.
Quantifying FRET in Transfected Neuro-2a Cells—Stably transfected Neuro-2a cells expressing YFP-apoE3-CFP or YFP-apoE4-CFP at similar levels were selected by fluorescence activated cell sorter (FACS). YFP and CFP images of transfected cells were acquired with the Meta Detector, and their fluorescence intensities were analyzed with the mounted computer. The FRET signal was calculated as the ratio of YFP to CFP fluorescence intensity under CFP excitation. For each YFP-apoE-CFP construct, the FRET signal was measured in at least 12 cells from different fields.
Quantifying FRET in the Culture Medium—Neuro-2a cells stably expressing YFP-apoE3-CFP or YFP-apoE4-CFP and wildtype cells were grown in T175 flasks to 90% confluence and incubated with serum-free minimum essential medium containing N2 supplement for 24 h. The conditioned medium (20 ml/flask) was concentrated about 20-fold with Centriplus-YM-10 concentrators (Amicon, Bedford, Mass.), dialyzed against PBS, illuminated at the CFP excitation wavelength (430 nm), and scanned for emission spectrum. The FRET signal was calculated as the ratio of emission at 525 nm (YFP) to that at 475 nm (CFP). Conditioned medium from cells expressing apoE3-CFP or apoE4-CFP was used to determine baseline fluorescence in the absence of FRET.

[2] = tested on: apoE3; test: Aβ production assay, B103-APP cells incubated with apoE3; type: cell-based, rat; settings: FIG. 22
Protocol: Aβ production assay. Stable neuroblastoma B103 cell lines transfected with a wildtype hAPP cDNA construct (B 103-APP) were selected by growing them in Dulbecco's modified Eagle's medium (DMEM) containing 10% fetal calf serum (FBS) and 400 μg/ml G418. A cell line expressing APP at similar levels in mouse brains has been identified by RNase protection assay (RPA) and was used in the studies described below. To determine Aβ production, B103-APP cells were incubated with serum-free minimal essential medium (MEM) containing N2 supplements with or without apoE isoforms for 24 h at 37° C. After incubation, 50 μl of medium was collected and assayed for Aβ levels with an ELISA method. The cells were lysed, and cellular proteins were determined by the Lowry method. AP production was normalized to cellular protein.
Cell Culture. Rat neuroblastoma B103 cells stably expressing human wildtype APP (hAPP695wt) (Xu et al. ((1999) Proc. Natl. Acad. Sci. USA 96:7547-7552; Esposito, et al. (2004) J. Neurochem. 91:1260-1274) were generated in Dr. Lennart Mucke's laboratory at the Gladstone Institute of Neurological Disease and maintained in Dulbecco's modified Eagle's medium (DMEM) (GIBCO, Grand Island, N.Y.) containing 400 μg/ml G418, 10% fetal bovine serum, and 5% horse serum at 37° C. Twenty-four hours after plating into 48-well plates (1×10^5 cells per well), cells were washed twice with serum-free DMEM and cultured for another 24 h in DMEM containing 1% N-2 supplement (GIBCO) to induce differentiation. The cells were treated with either β-VLDL (25 μg/ml cholesterol), recombinant human apoE isoform-enriched β-VLDL (7.5 μg/ml apoE and 25 μg/ml cholesterol), or recombinant human apoE (7.5 μg/ml apoE) in fresh DMEM containing 1% N-2 supplement for an additional 24 h. In some experiments, RAP (25 nM or 1 μM) was added to the cells 1 h before apoE treatment.
Aβ Assay. Aβ secreted into the medium was detected with a sandwich enzyme-linked immunosorbent assay (ELISA), using mAb 266 as a capturing antibody and 3D6 as a detecting antibody, as described. Johnson-Wood et al. ((1997) Proc. Natl. Acad. Sci. USA 94:1550-1555). Aβ was quantified from a standard curve (Aβ42; Bachem, Torrance, Calif.) and normalized by total cellular protein.

T1 sequence (P02649 19-317 C130R): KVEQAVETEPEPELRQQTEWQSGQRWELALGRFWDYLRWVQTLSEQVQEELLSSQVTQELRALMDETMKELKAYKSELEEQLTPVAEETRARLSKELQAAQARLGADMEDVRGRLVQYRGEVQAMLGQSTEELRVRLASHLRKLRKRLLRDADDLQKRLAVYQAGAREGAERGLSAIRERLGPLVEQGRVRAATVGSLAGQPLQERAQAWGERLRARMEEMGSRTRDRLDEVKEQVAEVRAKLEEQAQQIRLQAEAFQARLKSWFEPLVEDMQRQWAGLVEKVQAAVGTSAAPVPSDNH

Structure (SMILES): O=S(=O)([O-])c1ccc2c(c1)c(Nc1ccc(S(=O)(=O)O)cc1)cc1c2nc2ccccc2[n+]1-c1ccccc1 [GIND-25, azocarmine-G]
- ratio of FRET to CFP emission in the cells expressing YFP-apoE4-CFP ([1]; intracellular): decreased significantly
- ratio of FRET to CFP emission in media of YFP-apoE4-CFP cells ([1]; medium): decreased significantly
- effect on apoE3 (Aβ production) [2]: no effect
